From the supplement of paper PMC12137928
Counter-ions that a name gives are not always drawn.

Tested on: HCT116
Details: 72 h
Procedure, shortened: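 HCT116 cells were plated at 250 per well in 1536-well plates and allowed 5 h to attach. CellTiter-Glo luminescence was normalized to vehicle as 0% and positive control as -100%, followed by pattern correction. Four-parameter Hill fits provided IC50 and maximal efficacy.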

Row | IC50 cell viability (ICRF193 0 nM) [µM] | IC50 cell viability (ICRF193 200 nM) [µM] | Compound
1 | > 45.8 | > 45.8 | Cc1ccccc1C(OCCN(C)C)c1ccccc1 (stereo not given) [Orphenadrine dihydrogen citrate]
2 | > 45.8 | > 45.8 | OCCOc1ccc(/C(=C(/CCCl)c2ccccc2)c2ccccc2)cc1 [Ospemifene]
3 | > 45.8 | > 45.8 | O=C(O)c1nc(=O)[nH]c(=O)[nH]1 [Oteracil]
4 | > 45.8 | > 45.8 | Cc1onc(-c2ccccc2)c1C(=O)N[C@@H]1C(=O)N2[C@@H]1SC(C)(C)[C@@H]2C(=O)O [Oxacillin sodium]
5 | > 45.8 | > 45.8 | O=C(O)C(=O)O.[NH-][C@@H]1CCCC[C@H]1[NH-].[Pt+2] [Oxaliplatin]
6 | > 45.8 | > 45.8 | O=C(O)CCc1nc(-c2ccccc2)c(-c2ccccc2)o1 [Oxaprozin]
7 | > 45.8 | > 45.8 | CCN(CC)CCOCCOC(=O)C(CC)(CC)c1ccccc1 [Oxeladin Citrate]
8 | > 45.8 | > 45.8 | CCN(CC)CC#CCOC(=O)C(O)(c1ccccc1)C1CCCCC1 (stereo not given) [Oxybutynin chloride]
9 | > 45.8 | > 45.8 | COc1cc2[nH]c(C)c(CCN3CCN(c4ccccc4)CC3)c2cc1OC [Oxypertine hydrochloride]
10 | > 45.8 | > 45.8 | CN1CCCN=C1COC(=O)C(O)(c1ccccc1)C1CCCCC1 (stereo not given) [Oxyphencyclimine hydrochloride]
11 | > 45.8 | > 45.8 | CN(C)[C@@H]1C(O)=C(C(N)=O)C(=O)[C@@]2(O)C(O)=C3C(=O)c4c(O)cccc4[C@@](C)(O)[C@H]3[C@H](O)[C@@H]12 [Oxytetracycline]
12 | > 45.8 | > 45.8 | O=C(O)/C=C/c1ccc(Cn2ccnc2)cc1 [Ozagrel hydrochloride]
13 | > 45.8 | > 45.8 | Cc1cc(O)ccc1C(C)(C)C [P-T-BUTYL-M-CRESOL]
14 | > 45.8 | > 45.8 | CCC1(C)OC(=O)N(C)C1=O (stereo not given) [PARAMETHADIONE]
15 | > 45.8 | > 45.8 | NC[C@@H]1O[C@H](O[C@H]2[C@@H](O)[C@H](O[C@@H]3[C@@H](O)[C@H](N)C[C@H](N)[C@H]3O[C@H]3O[C@H](CO)[C@@H](O)[C@H](O)[C@H]3N)O[C@@H]2CO)[C@H](N)[C@@H](O)[C@@H]1O [PAROMOMYCIN SULFATE]
16 | > 45.8 | > 45.8 | CC(N/C(=N\C#N)Nc1ccncc1)C(C)(C)C (stereo not given) [PINACIDIL]

The next lines start with the compound.

Row | Compound | IC50 cell viability (ICRF193 0 nM) [µM] | IC50 cell viability (ICRF193 200 nM) [µM]
17 | CCOC(=O)C1=C[C@@H](OC(CC)CC)[C@H](NC(C)=O)[C@@H](N)C1 [Oseltamivir Phosphate] | > 45.8 | > 45.8
18 | C[C@]12CC[C@H]3[C@@H](CCC4=C(O)C(=O)CC[C@@H]43)[C@@H]1CC[C@@H]2OC(=O)CCC1CCCC1 [Oxabolone cipioncate] | > 45.8 | > 45.8
19 | C[N+]1(CC2COC(c3ccccc3)(C3CCCCC3)O2)CCCCC1 (stereo not given) [Oxapium iodide] | > 45.8 | > 45.8
20 | CC[C@H]1C[C@H]2[C@@H]3CCC4=CC(=O)CC[C@@H]4[C@H]3CC[C@]2(C)[C@H]1O [Oxendolone] | > 45.8 | > 45.8
21 | CC[N+]1(C)[C@@H]2CC(OC(=O)[C@H](CO)c3ccccc3)C[C@H]1[C@@H]1O[C@@H]12 (stereo not given in full) [Oxitropium Bromide] | > 45.8 | > 45.8
22 | C=CCOc1ccccc1OCC(O)CNC(C)C (stereo not given) [Oxprenolol hydrochloride] | > 45.8 | > 45.8
23 | Cc1cc(C(C)(C)C)c(O)c(C)c1CC1=NCCN1 [Oxymetazoline hydrochloride] | > 45.8 | > 45.8
24 | CC[N+](C)(CC)CCOC(=O)C(O)(c1ccccc1)C1CCCCC1 (stereo not given) [Oxyphenonium bromide] | > 45.8 | > 45.8
25 | CC[C@H](C)[C@@H]1NC(=O)[C@H](Cc2ccc(O)cc2)NC(=O)[C@@H](N)CSSC[C@@H](C(=O)N2CCC[C@H]2C(=O)N[C@@H](CC(C)C)C(=O)NCC(N)=O)NC(=O)[C@H](CC(N)=O)NC(=O)[C@H](CCC(N)=O)NC1=O [Oxytocin] | > 45.8 | > 45.8
26 | CC1(C)S[C@@H]2[C@H](NC(=O)COc3ccccc3)C(=O)N2[C@H]1C(=O)O [PENICILLIN V POTASSIUM] | > 45.8 | > 45.8
27 | N#Cc1ccc2c(c1)N(CCCN1CCC(O)CC1)c1ccccc1S2 [PERICIAZINE] | > 45.8 | > 45.8
28 | CC1(C)C(C=C(Cl)Cl)C1C(=O)OCc1cccc(Oc2ccccc2)c1 (stereo not given) [PERMETHRIN] | > 45.8 | > 45.8
29 | CN1CCC2=C(C1)C(c1ccccc1)c1ccccc12 (stereo not given) [PHENINDAMINE] | > 45.8 | > 45.8
30 | CC(C)(O)[C@@H]1[C@H]2OC(=O)[C@@H]1[C@]1(O)C[C@H]3O[C@]34C(=O)O[C@H]2[C@]14C [PICROTIN] | > 45.8 | > 45.8
